# Measured values: US11160839B2, “Pediococcus pentosaceus CCFM1012 and application thereof to preparation of Campylobacter jejuni infection antagonism medicine” (Jiangnan University, priority 2018, dated 2021)
# System: C. jejuni NCTC11168
# Experiment: Oxford cup inhibition zone test of lactic acid bacteria fermented supernate on Columbia blood agar
# Type: cell-based
# Conditions: Campylobacter jejuni, positive control 0.30 mg/mL, 48 h at 37° C., read-out: Diameter of inhibition zone
structure (smiles),measurement,value
CCn1cc(C(=O)O)c(=O)c2cc(F)c(N3CCNCC3)cc21 [norfloxacin],zone of inhibition at 300 µg/mL,19.7 ± 0.83 mm
